For the series, the system named is rodent carcinogenicity bioassays, tumor incidence. Kind of series: CCRIS carcinogenicity studies. The gist of the method: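 NCI-built, expert-reviewed records of carcinogenicity and related test outcomes (mutagenicity, tumor promotion/inhibition) compiled from published and report sources, historical span 1985-2011, not updated.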

Activity calls are given as the source filed them. The rule behind the calls is not given here.

With `CCC(=O)C(CC(C)N(C)C)(c1ccccc1)c1ccccc1` (stereo unspecified), the carcinogen call is, setting by setting: (Species: MOUSE, Strain/Sex: B6C3F1/FEMALE, Route: ORAL, Dose: 0, 15, 60 MG/KG IN DIET FOR DURATION OF STUDY (STUDY DURATION: 108 WK), Dose: 0, 15, 60 MG/KG IN DIET FOR DURATION OF STUDY (STUDY DURATION: 108 WK)) “inactive; negative”; (Species: MOUSE, Strain/Sex: B6C3F1/MALE, Route: ORAL, Dose: 0, 15, 60 MG/KG IN DIET FOR DURATION OF STUDY (STUDY DURATION: 108 WK), Dose: 0, 15, 60 MG/KG IN DIET FOR DURATION OF STUDY (STUDY DURATION: 108 WK)) “inactive; negative”; (Species: RAT, Strain/Sex: F344/FEMALE, Route: ORAL, Dose: 0, 28, 88 MG/KG IN DIET FOR DURATION OF STUDY (STUDY DURATION: 108 WK), Dose: 0, 28, 88 MG/KG IN DIET FOR DURATION OF STUDY (STUDY DURATION: 108 WK)) “inactive; negative”; (Species: RAT, Strain/Sex: F344/MALE, Route: ORAL, Dose: 0, 16, 46 MG/KG IN DIET FOR DURATION OF STUDY (STUDY DURATION: 108 WK), Dose: 0, 16, 46 MG/KG IN DIET FOR DURATION OF STUDY (STUDY DURATION: 108 WK)) “inactive; negative”.

With `Cc1c2ccccc2c(C)c2c3c(ccc12)[C@H](O)[C@@H](O)C=C3`, the carcinogen call reads like this: (Species: RAT, Strain/Sex: SPRAGUE-DAWLEY/FEMALE (8/GROUP), Route: SUBCUTANEOUS, Dose: 0.1 UMOL 3X A WK FOR 20 DOSES (STUDY DURATION: 38 WK), Tumor Site: Type of Lesion: MAMMARY: ADENOCARCINOMA) “active; positive (100%); no tumors at injection site”; (Species: RAT, Strain/Sex: SPRAGUE-DAWLEY/FEMALE (8/GROUP), Route: SUBCUTANEOUS, Dose: 0.2 UMOL 3X A WK FOR 20 DOSES (STUDY DURATION: 30 WK), Tumor Site: Type of Lesion: MAMMARY: ADENOCARCINOMA) “active; positive (100%); no tumors at injection site”.

Regarding `Nc1ccccc1`, the carcinogen call (Species: MOUSE, Strain/Sex: B6C3F1/FEMALE, Route: ORAL, Dose: 0, 0.6, 1.2% OF DIET, Dose: 0, 0.6, 1.2% OF DIET) was “inactive; negative”; the carcinogen call (Species: MOUSE, Strain/Sex: B6C3F1/MALE, Route: INTRAPERITONEAL, Dose: 0, 0.15 UMOL/G ONCE IN SODIUM ACETATE BUFFER (STUDY DURATION: 10 MO)) is “inactive; negative”; the carcinogen call (Species: MOUSE, Strain/Sex: B6C3F1/MALE, Route: ORAL, Dose: 0, 0.6, 1.2% OF DIET, Dose: 0, 0.6, 1.2% OF DIET) is “inactive; negative”; the carcinogen call (Species: RAT, Strain/Sex: F344/FEMALE, Route: ORAL, Dose: 0, 0.3, 0.6% OF DIET, Dose: 0, 0.3, 0.6% OF DIET, Tumor Site: Type of Lesion: SPLEEN OR BODY CAVITIES (BOTH PLEURAL AND PERITONEAL): FIBROSARCOMA OR SARCOMA, NOS) is “active; positive”; the carcinogen call (Species: RAT, Strain/Sex: F344/FEMALE, Route: ORAL, Dose: 0, 3000, 6000 PPM IN DIET FOR 103 WK (STUDY DURATION: 108 WK), Dose: 0, 3000, 6000 PPM IN DIET FOR 103 WK (STUDY DURATION: 108 WK), Tumor Site: Type of Lesion: SPLEEN OR PERITONEUM: SARCOMA) is “active; positive”; the carcinogen call (Species: RAT, Strain/Sex: F344/MALE, Route: ORAL, Dose: 0, 0.3, 0.6% OF DIET, Dose: 0, 0.3, 0.6% OF DIET, Tumor Site: Type of Lesion: SPLEEN AND BODY CAVITIES (BOTH PLEURAL AND PERITONEAL): FIBROSARCOMA OR SARCOMA, NOS, HEMANGIOSARCOMA) was “active; positive”. Further, the carcinogen call (Species: RAT, Strain/Sex: F344/MALE, Route: ORAL, Dose: 0, 3000, 6000 PPM IN DIET FOR 103 WK (STUDY DURATION: 108 WK), Dose: 0, 3000, 6000 PPM IN DIET FOR 103 WK (STUDY DURATION: 108 WK), Tumor Site: Type of Lesion: SPLEEN OR PERITONEUM: SARCOMA) was “active; positive”.

For `CN(N=O)C(CCCO)c1cccnc1` (stereo unspecified), the carcinogen call (Species: MOUSE, Strain/Sex: STRAIN-A/FEMALE, Route: INTRAPERITONEAL, Dose: 0, 200 UMOL TOTAL DOSE ADMINISTERED IN SUBDOSES 3/WK FOR 7 WK (STUDY DURATION: 37 WK)) was “inactive; negative”.

In the case of `Cc1ccc2c(c1[N+](=O)[O-])C(=O)c1ccccc1C2=O`, the carcinogen call runs as follows: (Species: MOUSE, Strain/Sex: B6C3F1/FEMALE, Route: ORAL, Dose: 0, 0.03, 0.06% IN DIET, Dose: 0, 0.03, 0.06% IN DIET, Tumor Site: Type of Lesion: LIVER: HEMANGIOSARCOMA) “active; positive”; (Species: MOUSE, Strain/Sex: B6C3F1/MALE, Route: ORAL, Dose: 0, 0.03, 0.06% IN DIET, Dose: 0, 0.03, 0.06% IN DIET, Tumor Site: Type of Lesion: LIVER: HEMANGIOSARCOMA) “active; positive”; (Species: RAT, Strain/Sex: F344/MALE, Route: ORAL, Dose: 0, 0.12, 0.06% IN DIET, Dose: 0, 0.12, 0.06% IN DIET, Tumor Site: Type of Lesion: LIVER: HEPATOCELLULAR CARCINOMA OR NEOPLASTIC NODULE, INTEGUMENTARY SYSTEM (SUBCUTANEOUS TISSUE): FIBROMA) “active; positive”.

With `CCCCCCCCCCCCN=C(N)N`, the carcinogen call was “active; positive, (neither tumor type, alone, was statistically significant.)” (Species: Mouse, Strain/Sex: Crl:CD-1(ICR)BR/Female (70/Group), Route: Oral, Dose: 0, 200, 750, 1500 ppm in diet for 78 wk, study duration 78 wk. Test sample purity, 98%., Dose: 0, 200, 750, 1500 ppm in diet for 78 wk, study duration 78 wk. Test sample purity, 98%., Tumor Site: Type of Lesion: Liver: Hepatocellular adenoma and carcinoma combined (high dose only)); “inactive; negative” (Species: Mouse, Strain/Sex: Crl:CD-1(ICR)BR/Male (70/Group), Route: Oral, Dose: 0, 200, 750, 1500 ppm in diet for 78 wk, study duration 78 wk. Test sample purity, 98%., Dose: 0, 200, 750, 1500 ppm in diet for 78 wk, study duration 78 wk. Test sample purity, 98%.); “inactive; negative” (Species: Rat, Strain/Sex: Sprague-Dawley/Female (60/Group), Route: Oral, Dose: 0, 13.2, 26.5, 53.5 mg/kg/day in diet on wks 1-101, study duration 2 yrs. Test sample purity, 98.6%., Dose: 0, 13.2, 26.5, 53.5 mg/kg/day in diet on wks 1-101, study duration 2 yrs. Test sample purity, 98.6%.); “inactive; negative” (Species: Rat, Strain/Sex: Sprague-Dawley/Male (60/Group), Route: Oral, Dose: 0, 10.2, 20.3, 41.9 mg/kg/day in diet on wks 1-101, study duration 2 yrs. Test sample purity, 98.6%, Dose: 0, 10.2, 20.3, 41.9 mg/kg/day in diet on wks 1-101, study duration 2 yrs. Test sample purity, 98.6%).

Regarding `Cc1cc2ccccc2c2ccc3c(c12)[C@H]1O[C@H]1[C@@H](O)[C@H]3O`, the carcinogen call is, setting by setting: (Species: MOUSE, Strain/Sex: ICR/FEMALE, Route: INTRAPERITONEAL, Dose: 8 NMOL/5 µL DMSO ON DAY 1, 16 NMOL/10 µL ON DAY 8, AND 32 NMOL/20 µL ON DAY 15 OF AGE (STUDY DURATION: 35 WK), Tumor Site: Type of Lesion: LUNG: TUMORS) “active; positive”; (Species: MOUSE, Strain/Sex: ICR/MALE, Route: INTRAPERITONEAL, Dose: 8 NMOL/5 µL DMSO ON DAY 1, 16 NMOL/10 µL ON DAY 8, AND 32 NMOL/20 µL ON DAY 15 OF AGE (STUDY DURATION: 35 WK), Tumor Site: Type of Lesion: LIVER: TUMORS) “active; positive”.

`CC(=O)OCc1c2ccccc2c2ccc3cccc4ccc1c2c43`: the carcinogen call (Species: MOUSE, Strain/Sex: B6C3F1/MALE, Route: INTRAPERITONEAL, Dose: 0, 0.0025, 0.005 UMOL/G ONCE AT 12 DAYS OF AGE (STUDY DURATION: 10 MO), Dose: 0, 0.0025, 0.005 UMOL/G ONCE AT 12 DAYS OF AGE (STUDY DURATION: 10 MO), Tumor Site: Type of Lesion: LIVER: HEPATOMA) was “active; positive”.

`Clc1cccc(-c2cc(Cl)cc(Cl)c2)c1`: the carcinogen call reads like this: (Species: RAT, Strain/Sex: SPRAGUE-DAWLEY/FEMALE, Route: ORAL, Dose: 0, 50, 100, 200 PPM IN DIET FOR THE DURATION OF STUDY (STUDY DURATION: 24 MO), Dose: 0, 50, 100, 200 PPM IN DIET FOR THE DURATION OF STUDY (STUDY DURATION: 24 MO), Tumor Site: Type of Lesion: LIVER: TUMOR) “active; positive”; (Species: RAT, Strain/Sex: SPRAGUE-DAWLEY/MALE, Route: ORAL, Dose: 0, 50, 100, 200 PPM IN DIET FOR THE DURATION OF STUDY (STUDY DURATION: 24 MO), Dose: 0, 50, 100, 200 PPM IN DIET FOR THE DURATION OF STUDY (STUDY DURATION: 24 MO)) “inactive; negative”.

Source of the values: PubChem BioAssay AID1259411 (Chemical Carcinogenesis Research Information System (CCRIS), 2018).
